Laboratory results published in ChEMBL document CHEMBL4359834 (J Med Chem, 2019).

Tests used:
[1] = Inhibition of Class 1 PI3K/mTOR in human A2058 cells assessed as reduction in Akt phosphorylation at Ser473 residue incubated for 1 hr by InCell Western assay; format: cell-based; conditions: A2058, 1 h
[2] = target: Phosphatidylinositol 4,5-bisphosphate 3-kinase catalytic subunit alpha isoform (Homo sapiens, UniProt P42336); test: Displacement of Alexafluor labelled kinase tracer314 from recombinant N-terminal His6-tagged PI3K p110alpha (unknown origin) incubated for 1 hr by FRET-based LanthaScreen Eu kinase binding assay
Sequence of Phosphatidylinositol 4,5-bisphosphate 3-kinase catalytic subunit alpha isoform (P42336 whole entry, the tested form may be a part, canonical isoform): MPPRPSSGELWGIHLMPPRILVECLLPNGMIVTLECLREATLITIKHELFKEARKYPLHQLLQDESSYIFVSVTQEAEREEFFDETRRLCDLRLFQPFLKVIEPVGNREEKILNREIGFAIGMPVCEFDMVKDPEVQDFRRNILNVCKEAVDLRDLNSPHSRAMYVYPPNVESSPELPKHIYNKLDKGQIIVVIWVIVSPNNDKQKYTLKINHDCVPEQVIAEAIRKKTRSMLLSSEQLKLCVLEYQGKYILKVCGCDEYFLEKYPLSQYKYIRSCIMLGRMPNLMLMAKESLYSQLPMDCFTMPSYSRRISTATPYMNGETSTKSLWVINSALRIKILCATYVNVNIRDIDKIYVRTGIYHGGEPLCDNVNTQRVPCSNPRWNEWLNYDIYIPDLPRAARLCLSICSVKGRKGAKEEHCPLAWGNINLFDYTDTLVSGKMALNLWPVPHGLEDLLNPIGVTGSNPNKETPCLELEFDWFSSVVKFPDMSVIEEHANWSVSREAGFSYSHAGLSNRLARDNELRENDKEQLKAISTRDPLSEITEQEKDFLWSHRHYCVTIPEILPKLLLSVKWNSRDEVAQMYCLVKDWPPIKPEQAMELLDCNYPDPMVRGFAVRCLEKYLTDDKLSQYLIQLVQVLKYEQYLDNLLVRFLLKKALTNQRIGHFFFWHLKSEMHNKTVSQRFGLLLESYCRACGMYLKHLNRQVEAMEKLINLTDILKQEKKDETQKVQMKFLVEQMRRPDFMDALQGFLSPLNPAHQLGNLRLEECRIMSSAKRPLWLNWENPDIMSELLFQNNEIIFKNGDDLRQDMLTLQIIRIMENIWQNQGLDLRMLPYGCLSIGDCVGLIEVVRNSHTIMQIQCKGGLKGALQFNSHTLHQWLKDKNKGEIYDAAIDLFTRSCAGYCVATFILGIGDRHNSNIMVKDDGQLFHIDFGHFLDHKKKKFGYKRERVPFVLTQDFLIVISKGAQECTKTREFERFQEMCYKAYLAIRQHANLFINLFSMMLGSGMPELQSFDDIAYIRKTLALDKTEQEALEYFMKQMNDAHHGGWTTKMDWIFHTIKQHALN

[3] = target: Serine/threonine-protein kinase mTOR (Homo sapiens, UniProt P42345); test: Displacement of Alexafluor labelled kinase tracer314 from recombinant human C-terminal GST-tagged mTOR (1360 to 2549 amino acids) expressed in insect cells incubated for 1 hr by FRET-based LanthaScreen Eu kinase binding assay
cells = conditions: Homo sapiens, A2058, 1 h
Description: Inhibition of Class 1 PI3K/mTOR in human A2058 cells assessed as reduction in S6 phosphorylation at Ser235/236 residue incubated for 1 hr by InCell Western assay

[4] = Intrinsic clearance in human hepatocytes assessed per 10^6 cells; format: ADME, cell-based, Hepatocyte; conditions: read-out: CLH
[5] = Intrinsic clearance in rat hepatocytes assessed per 10^6 cells; format: ADME, cell-based, Hepatocyte; conditions: read-out: CLH
[6] = Intrinsic clearance in dog hepatocytes assessed per 10^6 cells; format: ADME, cell-based, Canis lupus familiaris, Hepatocyte; conditions: read-out: CLH
[7] = Intrinsic clearance in mouse hepatocytes assessed per 10^6 cells; format: ADME, cell-based, Hepatocyte; conditions: read-out: CLH
[8] = Half-life clearance in human hepatocytes; format: ADME, cell-based, Hepatocyte
[9] = Half-life in rat hepatocytes; format: ADME, cell-based, Hepatocyte
[10] = Half-life in dog hepatocytes; format: ADME, cell-based, Canis lupus familiaris, Hepatocyte
[11] = Half-life in mouse hepatocytes; format: ADME, cell-based, Hepatocyte

| Compound | IC50 [1] | Ki [2] | Ki [3] | IC50 (cells) | hepatocyte CLint [4] | hepatocyte CLint [5] | hepatocyte CLint [6] | hepatocyte CLint [7] | half-life [8] | half-life [9] | half-life [10] | half-life [11] |
| --- | --- | --- | --- | --- | --- | --- | --- | --- | --- | --- | --- | --- |
| Nc1cc(C(F)(F)F)c(-c2nc(N3C4CCC3COC4)nc(N3C4CCC3COC4)n2)cn1 | 755 nM | 4640 nM | 76.8 nM | 299 nM | – | – | – | – | – | – | – | – |
| Nc1cc(C(F)(F)F)c(-c2nc(N3CCOCC3)nc(N3C4CCC3COC4)n2)cn1 | 420 nM | 19.9 nM | 43.1 nM | 156 nM | – | – | – | – | – | – | – | – |
| C[C@H]1COCCN1c1nc(-c2cnc(N)nc2C(F)F)cc(N2CCOCC2)n1 | 77.3 nM | 4.1 nM | 15.3 nM | 146 nM | – | – | – | – | – | – | – | – |
| C[C@H]1COCCN1c1cc(-c2cnc(N)cc2C(F)F)nc(N2CCOCC2)n1 | 614 nM | 13.7 nM | 42.3 nM | 766 nM | – | – | – | – | – | – | – | – |
| CCOc1ccc2ccc(=O)oc2c1 | – | – | – | – | 20 µL/min/1e6 cells | 30 µL/min/1e6 cells | 163 µL/min/1e6 cells | 74 µL/min/1e6 cells | 70 min | 46.2 min | 8.49 min | 18.7 min |
| Nc1cc(C(F)(F)F)c(-c2nc(N3CCOCC3)nc(N3CC4CCC(C3)O4)n2)cn1 | 274 nM | 31 nM | 47.8 nM | 212 nM | – | – | – | – | – | – | – | – |
